Laboratory results published in patent US7241732B2, “Compositions and methods involved in bone growth” (University of Rochester, priority 2001, dated 2007).
Each block holds one molecule with its values, some of them ahead of it.

Key:
ROS 17/2.8 cells = assay: Apoptosis of ROS 17/2.8 cells on exposure to TRAP (morphology, alkaline phosphatase stain); format: cell-based; details: 0.1% DMSO, then TRAP 5 ug/mL
Excerpt: DMSO, at this low concentration, itself won't cause any toxic effect on cells but can scavenge most of reactive oxygen species. […] Therefore, the TRAP-induced cell apoptosis is not due to a reactive oxygen species effect.

[1] = test system: P3TP-Lux reporter in MG-63 cells; assay: P3TP-Lux Smad 2,3 reporter in osteoblast cell lines; format: cell-based, human
Excerpt: P3TPLux is a Smad 2, 3 sensitive reporter. […] Co-transfection of the cells with a dominant negative TGFβ type II receptor blocks all TRAP and TGFβ signaling. Each bar is the mean of at least four determinations±SEM. * p 0.05 and ** p 0.01 as compared to control. The data for MG-63 cells are shown. The data for the SaOS2 cells are the same (data not shown).
The data with the MG-63 cell is what is shown.

SW408 cells = assay: P3TP-Lux reporter in Smad4 deficient cells; format: cell-based
Excerpt: SW408 cells are deficient in Smad4, a requisite co-factor for Smad2 and 3 signaling. […] However, when the cells are transfected with both Smad4 and TRIP-1, restoration of Smad signaling can occur. All values are the mean±SEM. * p 0.05 and ** p 0.01 as compared to control.

[2] = test system: TGFβ reporter construct (P3TPlux); assay: P3TP lux TGFβ reporter in transfected osteoblasts; format: cell-based; details: FIG. 9
Procedure: Note the difference in scales. N=4-6.
Functionality of TRIP for TGFβ signaling was determined by measuring the activation of a TGFβ promoter/reporter construct, P3TP Lux (see Experimental Design for a complete description of this construct).
Osteoblasts, cultured at 30-40% confluence in 6-well plates, are transfected on day 2 after plating using the transfection reagent Superfect (Qiagen Santa Clarita, Calif.) according to the manufacturer's guidelines. Individual experiments are internally controlled for amount of total plasmid DNA, with equal amounts of p3TP-Lux reporter, control SV40-renilla plasmid for normalization of transfection efficiency, and target construct and/or vector control DNA for all co-transfection experiments. Following transfection, the cells are placed in media containing DMEM, Penicillin/Streptomycin, and 10% NuSerum IV. After 12 hours, they are incubated for 6 hours in serum-free media (containing DMEM, hyaluronidase 4 U/ml, Penicillin/Streptomycin, and supplemented with 10 pM triiodothyronine (Sigma, St. Louis, Mo.), 60 ng/ml insulin, and 1 mM cysteine (Sigma, St. Louis, Mo.)) plus the factor or cytokine of interest. Eighteen hours later, the cells are harvested and assayed for luciferase activity using the Promega dual luciferase assay system. Renilla luciferase values were used to normalize each sample for transfection efficiency.

D14 primary osteoblasts = assay: OPG sandwich ELISA; format: cell-based; details: following treatment
Procedure: OPG is the deccoy receptor for the RNAKL and stop the osteoclastogenesis. RANKL and OPG has been proposed for the regulation of osteoclast differentiation function. Both OPG and RANKL can themselves also be regulated by TGF-β (MacDonald R G, Science 239:1134-7, (1988)). […] This lower the secretion amount of OPG the less the protection afforded from the osteoclast.
(§1) After incubation, the plates were washed with PBS-Tween.

isolated osteoblasts = assay: Osteoblast phenotypic markers (alkaline phosphatase, Runx2, OPG, collagen); format: cell-based, rat; details: TRAP 10 μg/ml, TGFβ 2 ng/ml; percent of control, FIG. 14
Procedure: The qualitative pattern of stimulation by TRAP and TGFβ for markers of osteoblast differentiation is similar. […] Alkaline phosphatase (Alk. Phos.) was measured in a direct biochemical assay. Runx2 and osteoprotegerin (OPG) were quantified in an ELISA assay using commercially available antibodies. Collagen was measured by determining the amount of collagenase-digestible protein present in pre-labeled osteoblasts (34). All data are expressed as a percent of the control, untreated cells. All data points are the mean±one SEM. * p 0.05. ** p 0.01.
Isolated osteoblasts were prepared from neo-natal rat calvaria as previously described (Martinez D A, et al., J. Cellular Biochemistry 59: 246-257 (1995)). Alkaline phosphatase assays and standard Western analyses were performed as previously described (Ionescu A M. ET AL., Journal of Biological Chemistry. 276:11639-47 (2001)).
as §1
Osteoblast differentiation at sites of bone remodeling is mediated by a number of regulatory factors. One of the key factors is TGFβ. In most systems, including the typically the disclosed system, TGFβ is known to be a potent enhancer of the osteoblast phenotype.

[3] = test system: rat calvarial osteoblasts after 14 days of culture; assay: Cleaved caspase 3 and cleaved PARP levels; format: cell-based; details: day 14 cells, FIGS. 24 and 25
Excerpt: Biochemical confirmation of the effect of TRAP on osteoblast apoptosis was obtained by assaying levels of caspase-3 and poly ADP-ribose polymerase (PARP) in these cells lines. […] Thus, another indicator of a cells progression through apoptosis is a measurement of its cleaved caspase 3 levels. Similarly, poly ADP-ribose polymerase is a substrate for active caspase 3 and increased levels of cleave PARP are indicative of an active caspase.

[4] = biological target: T1, TGFβRII, HIS-TRIP and Smad 2 (Homo sapiens, UniProt Q13347); assay: GST-TRAP pull-down of receptor complex from transfected 293T cells; format: binding; details: exogenous GST-TRAP 12 hours
T1 construct: expressed in transfected cells; host or cells: 293T cells transfected with TGFβRII and His-TRIP-1; Smad 2 endogenous
Excerpt: 293T cells were transfected with TGFβRII. Some of these cells were then co-transfected with a “His”-tagged TRIP-1 (His-TRIP-1). In lane A, in which both the receptor and TRIP-1 were present, but GST-TRAP was not added, no parts of the complex could be “pulled down” with glutathione coated beads. The same was true if His-TRIP-1 was not transfected into the cells. However, if the receptor, TRIP-1 and GST-TRAP were all present, a protein complex composed of the receptor, TRIP-1 and Smad 2 could be extracted with glutathione coated beads.
GST-TRAP and GST-TRIP fusion proteins, and GST control protein were purified as instructed by the manufacturer (Amersham Pharmacia). Briefly, plasmids containing GST-fusion protein expressing cDNA were transformed into a BL21DE3)pLysS bacteria strain and selected for ampicillin and chloramphenicol resistant colonies. Selected colonies were grown in LB medium at 30° C. until OD600 reached 0.6 to 1. Then 0.1 mM IPTG was added to medium for 3 hours. Bacteria were lysed by B-PER (Pierce) with 1 mM PMSF. Lysed bacteria were spun down and the supernatants were collected. […]
Detection of HIS-TRIP was performed with anti-HIS antibodies and detection of the TGFβRII and Smad 2 were performed with a commercially available antibodies. […] The beads were extensively washed and the proteins interacting with the beads were analyzed with Western analysis.

T1 sequence (Q13347 whole entry): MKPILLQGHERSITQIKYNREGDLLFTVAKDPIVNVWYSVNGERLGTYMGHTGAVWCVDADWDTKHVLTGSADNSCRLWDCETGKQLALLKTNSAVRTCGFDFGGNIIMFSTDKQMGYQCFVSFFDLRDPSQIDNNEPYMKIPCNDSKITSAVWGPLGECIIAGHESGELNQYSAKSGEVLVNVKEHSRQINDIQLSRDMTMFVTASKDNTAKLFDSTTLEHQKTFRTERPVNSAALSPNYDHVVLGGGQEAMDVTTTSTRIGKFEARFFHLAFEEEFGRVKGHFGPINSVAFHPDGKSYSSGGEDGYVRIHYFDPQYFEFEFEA
T1 sequence (P37173 23-567 partner): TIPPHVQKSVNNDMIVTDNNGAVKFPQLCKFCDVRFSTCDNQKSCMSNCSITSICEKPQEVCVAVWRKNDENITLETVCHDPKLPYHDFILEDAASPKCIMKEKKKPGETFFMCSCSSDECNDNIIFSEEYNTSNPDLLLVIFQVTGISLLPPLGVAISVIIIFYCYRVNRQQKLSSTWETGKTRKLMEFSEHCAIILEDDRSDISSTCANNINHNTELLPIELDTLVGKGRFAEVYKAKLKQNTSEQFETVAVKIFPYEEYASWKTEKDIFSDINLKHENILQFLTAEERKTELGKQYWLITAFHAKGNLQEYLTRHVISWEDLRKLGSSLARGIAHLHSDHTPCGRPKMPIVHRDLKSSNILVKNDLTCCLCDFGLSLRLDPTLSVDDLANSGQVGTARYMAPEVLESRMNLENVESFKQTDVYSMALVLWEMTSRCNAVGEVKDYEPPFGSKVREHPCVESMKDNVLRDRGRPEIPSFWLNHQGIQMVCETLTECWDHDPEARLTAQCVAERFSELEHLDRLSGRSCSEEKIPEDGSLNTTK
T1 sequence (Q15796 2-467 partner limits assumed): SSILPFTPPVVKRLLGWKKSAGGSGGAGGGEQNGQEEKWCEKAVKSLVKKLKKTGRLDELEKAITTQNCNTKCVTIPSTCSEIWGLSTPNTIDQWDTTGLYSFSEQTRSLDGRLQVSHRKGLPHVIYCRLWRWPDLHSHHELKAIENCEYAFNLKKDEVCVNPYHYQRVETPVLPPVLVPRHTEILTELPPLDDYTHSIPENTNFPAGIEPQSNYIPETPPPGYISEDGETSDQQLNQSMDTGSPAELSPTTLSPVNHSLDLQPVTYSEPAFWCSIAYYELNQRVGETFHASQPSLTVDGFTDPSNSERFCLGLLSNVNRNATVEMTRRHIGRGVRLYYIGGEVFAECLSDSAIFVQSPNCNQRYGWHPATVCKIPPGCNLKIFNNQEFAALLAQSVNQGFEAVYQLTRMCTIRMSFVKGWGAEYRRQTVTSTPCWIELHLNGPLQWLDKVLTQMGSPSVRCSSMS

Molecule: C[S+](C)[O-] [DMSO]
protection from apoptosis induced by TRAP (ROS 17/2.8 cells): did not protect cells from apoptosis induced by TRAP

Molecule: TGFβ
P3TP-Lux activation with co-transfected dominant negative type II TGFβ receptor [1]: block both TGFβ and TRAP activation of the pathway | upregulation of P3TP-Lux reporter gene ([1]; TRAP 10 μg/ml, TGFβ 5 ng/ml, MG-63 shown, SaOS2 the same): strongly upregulate a reporter gene | activation of reporter gene in Smad4 deficient cells (SW408 cells): neither TGFβ nor TRAP could activate the reporter gene | signaling after restoration of Smad4 and TRIP-1 protein (SW408 cells; cells transfected with Smad4 and TRIP-1): restores TGFβ and TRAP signaling | activation of P3TP lux [2]: strongly activate P3TP lux | level of OPG (D14 primary osteoblasts): less Osteoprotegrin (OPG) production | effect on alkaline phosphatase activity, Runx 2, OPG and collagen protein synthesis (isolated osteoblasts): an increase in alkaline phosphatase activity, and an increase in Runx 2, osteoprotegerin (OPG) and collagen protein synthesis

cleaved caspase 3 and cleaved PARP [3]: have the same effect on the cells
B1: GST-TRAP: recombinant fusion protein of GST and TRAP, non-glycosyl protein made in bacteria (protein)
chain: ATPALRFVAVGDWGGVPNAPFHTAREMANAKEIARTVQILGADFILSLGDNFYFTGVQDINDKRFQETFEDVFSDRSLRKVPWYVLAGNHDHLGNVSAQIAYSKISKRWNFPSPFYRLHFKIPQTNVSVAIFMLDTVTLCGNSDDFLSQQPERPRDVKLARTQLSWLKKQLAAAREDYVLVAGHYPVWSIAEHGPTHCLVKQLRPLLATYGVTAYLCGHDHNLQYLQDENGVGYVLSGAGNFMDPSKRHQRKVPNGYLRFHYGTEDSLGGFAYVEISSKEMTVTYIEASGKSLFKTRLPRRARP
modifications: left off: a dimerising Fc or GST
notes: recombinant fusion protein of GST and TRAP, non-glycosyl protein made in bacteria
proteins pulled down with glutathione beads [4]: the complex of the TGFβRII, HIS-TRIP and Smad 2 can be extracted and detected
